Reference: patent publication US8188102B2, “Amide derivative for inhibiting the growth of cancer cells” (Hanmi Holdings Co., Ltd., priority 2007, dated 2012)

Legend:
[1] = system: A431 skin cancer cell line; experiment: Cancer cell growth inhibition, A431 (SRB); conditions: Homo sapiens, A-431, 72 h, read-out: ID50 (nM) A431
[2] = system: SK-Br3 breast cancer cell line; experiment: Cancer cell growth inhibition, SK-Br3 (SRB); conditions: Homo sapiens, SK-BR-3, 72 h, read-out: ID50 (nM) SK-Br3

Structure (SMILES)	IC50 [1]	IC50 [2]
COc1cc2ncnc(Nc3cccc(Cl)c3F)c2cc1OC1CCN(C(=O)/C=C/CN(C)C)CC1 [Example 100, (E)-1-(4-(4-(3-chloro-2-fluorophenylamino)-7-methoxyquinazolin-6-yloxy)piperidin-1-yl)-4-(dimethylamino)but-2-en-1-one]	76 nM	15 nM
COc1cc2ncnc(Nc3cccc(Cl)c3F)c2cc1OC1CN(C(=O)/C=C/CN(C)C)C1 [Example 102, (E)-1-(3-(4-(3-chloro-2-fluorophenylamino)-7-methoxyquinazolin-6-yloxy)azetidin-1-yl)-4-(dimethylamino)but-2-en-1-one]	9 nM	8 nM
COc1cc2ncnc(Nc3ccc(F)c(Cl)c3F)c2cc1OCCNC(=O)/C=C/CN(C)C [Example 103, (E)-N-(2-(4-(3-chloro-2,4-difluorophenylamino)-7-methoxyquinazolin-6-yloxy)ethyl)-4-(dimethylamino)but-2-enamide]	18 nM	7 nM
C=C(CN1CCCCC1)C(=O)N1CC(Oc2cc3c(Nc4ccc(F)c(Cl)c4F)ncnc3cc2OC)C1 [Example 108, 1-(3-(4-(3-chloro-2,4-difluorophenylamino)-7-methoxyquinazolin-6-yloxy)azetidin-1-yl)-2-(piperidin-1-ylmethyl)prop-2-en-1-one]	9.1 nM	6 nM
C=C(CN(C)C)C(=O)N1CCC(Oc2cc3c(Nc4ccc(F)c(Cl)c4F)ncnc3cc2OC)CC1 [Example 109, 1-(4-(4-(3-chloro-2,4-difluorophenylamino)-7-methoxyquinazolin-6-yloxy)piperidin-1-yl)-2-((dimethylamino)methyl)prop-2-en-1-one]	2.7 nM	3.5 nM
C=C(CN1CCOCC1)C(=O)N1CCC(Oc2cc3c(Nc4ccc(F)c(Cl)c4F)ncnc3cc2OC)CC1 [Example 110, 1-(4-(4-(3-chloro-2,4-difluorophenylamino)-7-methoxyquinazolin-6-yloxy)piperidin-1-yl)-2-(morpholinomethyl)prop-2-en-1-one]	10 nM	30 nM
C=C(CN(C)C)C(=O)N1CCC(Oc2cc3c(Nc4ccc(Cl)c(Cl)c4F)ncnc3cc2OC)CC1 [Example 111, 1-(4-(4-(3,4-dichloro-2-fluorophenylamino)-7-methoxyquinazolin-6-yloxy)piperidin-1-yl)-2-((dimethylamino)methyl)prop-2-en-1-one]	4 nM	6 nM
COc1cc2ncnc(Nc3ccc(F)c(Cl)c3F)c2cc1OC1CN(C(=O)/C=C\CN(C)C)C1 [Example 112, (Z)-1-(3-(4-(3-chloro-2,4-difluorophenylamino)-7-methoxyquinazolin-6-yloxy)azetidin-1-yl)-4-(dimethylamino)but-2-en-1-one]	15 nM	0.8 nM
C=CC(=O)N1CC(Oc2cc3c(Nc4ccc(F)c(Cl)c4F)ncnc3cc2O)C1 [Example 115, 1-(3-(4-(3-chloro-2,4-difluorophenylamino)-7-hydroxyquinazolin-6-yloxy)azetidin-1-yl)prop-2-en-1-one]	381 nM	93 nM
C=CC(=O)N1CC(Oc2cc3c(Nc4ccc(F)c(Cl)c4F)ncnc3cc2OCCOC)C1 [Example 116, 1-(3-(4-(3-chloro-2,4-difluorophenylamino)-7-(2-methoxyethoxy)quinazolin-6-yloxy)azetidin-1-yl)prop-2-en-1-one]	883 nM	327 nM
C=CC(=O)N1CC[C@H](Oc2cc3c(Nc4ccc(F)c(Cl)c4F)ncnc3cc2OC)C[C@H]1C(=O)OC [Example 119, (2S,4S)-methyl 1-acryloyl-4-(4-(3-chloro-2,4-difluorophenylamino)-7-methoxyquinazolin-6-yloxy)piperidin-2-carboxylate]	5 nM	6 nM
C=CC(=O)N1CC[C@H](Oc2cc3c(Nc4ccc(F)c(Cl)c4F)ncnc3cc2OC)C[C@H]1C(=O)NC [Example 121, (2S,4S)-1-acryloyl-4-(4-(3-chloro-2,4-difluorophenylamino)-7-methoxyquinazolin-6-yloxy)-N-methylpiperidin-2-carboxamide]	2.2 nM	2.5 nM
C=CC(=O)N1CC[C@H](Oc2cc3c(Nc4ccc(F)c(Cl)c4F)ncnc3cc2OC)C[C@H]1C(=O)NCC [Example 122, (2S,4S)-1-acryloyl-4-(4-(3-chloro-2,4-difluorophenylamino)-7-methoxyquinazolin-6-yloxy)-N-ethylpiperidin-2-carboxamide]	8 nM	2.3 nM
C=CC(=O)N1CC[C@H](Oc2cc3c(Nc4ccc(F)c(Cl)c4F)ncnc3cc2OC)C[C@H]1C(=O)NCCC [Example 123, (2S,4S)-1-acryloyl-4-(4-(3-chloro-2,4-difluorophenylamino)-7-methoxyquinazolin-6-yloxy)-N-propylpiperidin-2-carboxamide]	12 nM	5 nM
C=CC(=O)N1CC[C@H](Oc2cc3c(Nc4ccc(F)c(Cl)c4F)ncnc3cc2OC)C[C@H]1C(=O)NC(C)C [Example 124, (2S,4S)-1-acryloyl-4-(4-(3-chloro-2,4-difluorophenylamino)-7-methoxyquinazolin-6-yloxy)-N-isopropylpiperidin-2-carboxamide]	7.5 nM	2.8 nM
C=CC(=O)N1CC[C@H](Oc2cc3c(Nc4ccc(F)c(Cl)c4F)ncnc3cc2OC)C[C@H]1C(=O)NCCN1CCOCC1 [Example 132, (2S,4S)-1-acryloyl-4-(4-(3-chloro-2,4-difluorophenylamino)-7-methoxyquinazolin-6-yloxy)-N-(2-morpholinoethyl)piperidin-2-carboxamide]	8.3 nM	0.5 nM

More lines, in order of falling IC50 [1], values ahead:

IC50 [1]	IC50 [2]	Structure (SMILES)
979 nM	4 nM	C=CC(=O)N1CC[C@@H](Oc2cc3c(Nc4ccc(F)c(Cl)c4F)ncnc3cc2OC)C[C@@H]1C(=O)O [Example 134, (2R,4R)-1-acryloyl-4-(4-(3-chloro-2,4-difluorophenylamino)-7-methoxyquinazolin-6-yloxy)piperidin-2-carboxylic acid]
165 nM	39 nM	COc1cc2ncnc(Nc3ccc(Cl)c(Cl)c3F)c2cc1OC1CCN(C(=O)/C=C/CN(C)C)CC1 [Example 99, (E)-1-(4-(4-(3,4-dichloro-2-fluorophenylamino)-7-methoxyquinazolin-6-yloxy)piperidin-1-yl)-4-(dimethylamino)but-2-en-1-one]
44 nM	274 nM	C=C(CO)C(=O)N1CCC(Oc2cc3c(Nc4ccc(Cl)c(Cl)c4F)ncnc3cc2OC)CC1 [Example 114, 1-(4-(4-(3,4-dichloro-2-fluorophenylamino)-7-methoxyquinazolin-6-yloxy)piperidin-1-yl)-2-(hydroxymethyl)prop-2-en-1-one]
36 nM	11 nM	COc1cc2ncnc(Nc3ccc(F)c(Cl)c3F)c2cc1OC1CN(C(=O)/C=C/CN(C)C)C1 [Example 101, (E)-1-(3-(4-(3-chloro-2,4-difluorophenylamino)-7-methoxyquinazolin-6-yloxy)azetidin-1-yl)-4-(dimethylamino)but-2-en-1-one]
25 nM	94 nM	CN(C)C/C=C/C(=O)N1CC[C@H](Oc2ccc3ncnc(Nc4ccc(F)c(Cl)c4F)c3c2)C1 [Example 97, (E)-1-((3S)-3-(4-(3-chloro-2,4-difluorophenylamino)quinazolin-6-yloxy)pyrrolidin-1-yl)-4-(dimethylamino)but-2-en-1-one]
20 nM	0.5 nM	C=CC(=O)N1CC[C@H](Oc2cc3c(Nc4ccc(F)c(Cl)c4F)ncnc3cc2OC)C[C@H]1C(=O)NCCCO [Example 131, (2S,4S)-1-acryloyl-4-(4-(3-chloro-2,4-difluorophenylamino)-7-methoxyquinazolin-6-yloxy)-N-(3-hydroxypropyl)piperidin-2-carboxamide]
10 nM	1 nM	C=CC(=O)N1CC[C@H](Oc2cc3c(Nc4ccc(F)c(Cl)c4F)ncnc3cc2OC)C[C@H]1C(=O)NO [Example 125, (2S,4S)-1-acryloyl-4-(4-(3-chloro-2,4-difluorophenylamino)-7-methoxyquinazolin-6-yloxy)-N-hydroxypiperidin-2-carboxamide]
6 nM	17 nM	COc1cc2ncnc(Nc3ccc(F)c(Cl)c3F)c2cc1OC1CCN(C(=O)/C=C\CN(C)C)CC1 [Example 113, (Z)-1-(4-(4-(3-chloro-2,4-difluorophenylamino)-7-methoxyquinazolin-6-yloxy)piperidin-1-yl)-4-(dimethylamino)but-2-en-1-one]
4 nM	2 nM	C=CC(=O)N1CCC(Oc2cc3c(Nc4ccc(F)c(Cl)c4F)ncnc3cc2OCCCN2CCOCC2)CC1 [Example 118, 1-(4-(4-(3-chloro-2,4-difluorophenylamino)-7-(3-morpholinopropoxy)quinazolin-6-yloxy)piperidin-1-yl)prop-2-en-1-one]
2.4 nM	0.7 nM	C=C(CN1CCCCC1)C(=O)N1CC(Oc2cc3c(Nc4cccc(Cl)c4F)ncnc3cc2OC)C1 [Example 107, 1-(3-(4-(3-chloro-2-fluorophenylamino)-7-methoxyquinazolin-6-yloxy)azetidin-1-yl)-2-(piperidin-1-ylmethyl)prop-2-en-1-one]
1.7 nM	1.3 nM	C=CC(=O)N1CC[C@@H](Oc2cc3c(Nc4ccc(F)c(Cl)c4F)ncnc3cc2OC)C[C@@H]1C(=O)NO [Example 137, (2R,4R)-1-acryloyl-4-(4-(3-chloro-2,4-difluorophenylamino)-7-methoxyquinazolin-6-yloxy)-N-hydroxypiperidin-2-carboxamide]
1 nM	0.5 nM	C=C(CN1CCN(C)CC1)C(=O)N1CC(Oc2cc3c(Nc4ccc(F)c(Cl)c4F)ncnc3cc2OC)C1 [Example 106, 1-(3-(4-(3-chloro-2,4-difluorophenylamino)-7-methoxyquinazolin-6-yloxy)azetidin-1-yl)-2-((4-methylpiperazin-1-yl)methyl)prop-2-en-1-one]
